What was measured:
[1] = target: JAK1 (Homo sapiens, UniProt P23458); assay: Human whole blood assay: pSTAT3 (JAK1) in lymphocytes; assay type: cell-based; parameters: endogenous in cells; host or cells: human whole blood, CD4+ lymphocytes; conditions: HWB
Description: Human Whole Blood Assays: Determination of pSTAT3 (JAK1) and pSTAT5 (JAK2) in Lymphocytes and Monocytes
Human whole blood (HWB) assays were developed and validated to determine the JAK1 and JAK2 selectivity of test compounds.
Dilute the test compounds, 10 points, (1:3) in DMSO 100% and a step down in PBS+0.1% BSA. Use tofacitinib as a reference compound in each plate, as well as a maximum signal (stimulated wells) and a minimum signal (no stimulated wells) in order to normalize data. Obtain a pool of HWB from 4 different healthy donors. Plate the blood in a 96 well plate using a Tecan Evo 96w and incubate with test compounds for 1 h at RT. After this time of incubation, stimulate HWB with both IL6 (206-IL, R&D System) and GM-CSF (PHC2015, Life Technologies) for 15 more minutes. […]
The final concentrations in the assay are the following: 100 μM for compounds, 50 μM for tofacitinib, 0.1 μg/mL IL6, 0.038 μg/mL GM-CSF and 1% DMSO. […] Incubate the antibodies for 1 h in dark at RT, then wash cells 2× and read on Cytometer Macsquant (Miltenyi Biotec). Gate the data on CD4+(lymphocytes) and CD4Low CD33Hi (monocytes), to measure the fluorescence from cells expressing pSTAT3 and pSTAT5 respectively. Analyze the data using FlowJo v_10 and the normalize the median of fluorescence versus maximum and minimum signal to determine the IC50s. […]

[2] = system: phosphorylation of STAT3 in the H1975 xenograft; assay: pSTAT3 Mouse IVTI (JAK1) Assay, H1975 xenograft; assay type: in vivo; conditions: single oral dose, two hours, n=1
Procedure: pSTAT3 Mouse IVTI (JAK1) Assay
The purpose of this assay is to measure the ability of test compounds to inhibit the phosphorylation of STAT3 (STAT3 activation) in the H1975 xenograft mouse model. Grow H1975 cells according to ATCC specifications at the lowest possible passage number available. Culture and maintain cells in RPMI-1640 supplemented with 10% FBS and incubated at 37° C. in 5% CO2. Harvest cells by standard techniques and mix with BD Biosciences basement membrane matrix (MATRIGEL®) to cell suspension to achieve a 1:1 cell/matrix ratio yielding an inoculation volume of 0.2 mL cell/matrix suspension containing 5e6 cells. […] Time course studies are a single dose administered at the TED70 determined from the dose response study.
Harvest and cut tumors to yield approximately 150-250 mm^3 size fragments and immediately drop into a 12×75 mm tube containing 1 mL of ice cold MSD Tris Lysis buffer (Meso Scale Discovery cat# R60TX-2) and 1×HALT (Thermo Scientific product #1861281). […] Cool plate to RT and measure absorbance at or near 562 nm on Molecular Devices Spectra Max. Protein concentrations for each sample are determined using SoftMax Pro 6.3 software program. After tumor samples are quantitated, freeze lysates at −80° C. in the 96 well polypropylene plate and assay at a later date. […]

Sequence of JAK1 (P23458 whole entry): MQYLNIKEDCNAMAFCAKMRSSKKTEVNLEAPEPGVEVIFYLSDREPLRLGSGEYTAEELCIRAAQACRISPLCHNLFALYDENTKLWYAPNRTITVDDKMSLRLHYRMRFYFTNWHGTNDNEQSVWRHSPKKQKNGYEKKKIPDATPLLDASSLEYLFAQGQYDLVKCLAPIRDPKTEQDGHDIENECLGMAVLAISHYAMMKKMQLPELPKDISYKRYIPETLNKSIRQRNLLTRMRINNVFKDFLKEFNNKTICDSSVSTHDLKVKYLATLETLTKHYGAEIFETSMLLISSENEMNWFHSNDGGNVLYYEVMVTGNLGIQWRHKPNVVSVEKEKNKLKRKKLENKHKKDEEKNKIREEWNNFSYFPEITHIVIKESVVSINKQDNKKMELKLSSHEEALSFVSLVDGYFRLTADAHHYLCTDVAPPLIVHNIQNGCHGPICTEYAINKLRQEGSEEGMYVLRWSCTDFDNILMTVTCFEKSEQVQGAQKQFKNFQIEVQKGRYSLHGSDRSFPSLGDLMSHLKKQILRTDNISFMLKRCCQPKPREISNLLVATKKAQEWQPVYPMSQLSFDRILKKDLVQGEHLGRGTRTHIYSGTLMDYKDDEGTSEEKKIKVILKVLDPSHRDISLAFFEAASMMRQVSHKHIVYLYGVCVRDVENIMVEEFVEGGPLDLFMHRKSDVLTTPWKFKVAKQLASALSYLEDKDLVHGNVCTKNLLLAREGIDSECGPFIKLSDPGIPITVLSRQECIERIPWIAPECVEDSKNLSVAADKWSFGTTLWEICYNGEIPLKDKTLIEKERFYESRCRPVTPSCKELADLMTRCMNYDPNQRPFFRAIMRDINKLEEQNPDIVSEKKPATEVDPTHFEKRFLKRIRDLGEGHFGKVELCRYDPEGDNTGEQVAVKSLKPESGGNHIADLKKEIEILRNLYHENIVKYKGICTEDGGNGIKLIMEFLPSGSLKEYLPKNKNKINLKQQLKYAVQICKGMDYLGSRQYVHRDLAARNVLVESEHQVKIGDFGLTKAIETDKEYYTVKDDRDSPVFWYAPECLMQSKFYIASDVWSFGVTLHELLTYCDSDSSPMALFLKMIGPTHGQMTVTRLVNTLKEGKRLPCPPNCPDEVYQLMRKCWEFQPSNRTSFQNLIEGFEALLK

Compound: Cc1cc(Nc2cc(O[C@H]3CC[C@@H](NC[C@@H](O)C(F)(F)F)CC3)cc3c2ncn3C)nn1C [Example 1, (2R)-3-{[cis-4-({4-[(1,5-Dimethyl-1H-pyrazol-3-yl)amino]-1-methyl-1H-benzimidazol-6-yl}oxy)cyclohexyl]amino}-1,1,1-trifluoropropan-2-ol]
- IC50 ([1]; IL6 stimulated, CD4+ lymphocytes, n=3): 2400 ± 640 nM
- potency for JAK1 over JAK2 in a human whole blood assay ([1]; JAK1 over JAK2): approximately 5 ×
- TEC50 (plasma concentration to achieve 50% pSTAT3 inhibition) [2]: 11.1 μM
- TED50 (dose necessary to achieve 50% pSTAT3 inhibition) [2]: 35 mg/kg
